Test results reported in patent US12281102B2, “Inhibitors of APOL1 and methods of using same” (Vertex Pharmaceuticals Incorporated, priority 2020, dated 2025).

Molecular target: T1, G1 APOL1 (Homo sapiens, UniProt O14791, I384M/S342G)
T1 construct: expressed in transfected cells
T1 sequence (O14791 28-398 S342G/I384M): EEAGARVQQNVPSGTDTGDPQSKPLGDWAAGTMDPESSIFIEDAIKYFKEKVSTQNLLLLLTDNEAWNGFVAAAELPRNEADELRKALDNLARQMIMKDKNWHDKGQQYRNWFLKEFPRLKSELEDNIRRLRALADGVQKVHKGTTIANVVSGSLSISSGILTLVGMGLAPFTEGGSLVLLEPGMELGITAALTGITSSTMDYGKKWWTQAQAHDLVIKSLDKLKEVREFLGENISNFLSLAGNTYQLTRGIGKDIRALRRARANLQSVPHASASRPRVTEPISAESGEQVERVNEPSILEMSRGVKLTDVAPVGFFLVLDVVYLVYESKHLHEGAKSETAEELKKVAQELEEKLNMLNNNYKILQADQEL
Assay: Acute APOL1 Thallium Assay with inducible stable clones of HEK 293 cells
Format: cell-based
Settings: HEK 293 T-Rex inducible stable clone expressing G1 APOL1; read-out: Thallium Assay (IC50)
Text: Acute APOL1 Thallium Assay with Inducible Stable Clones of HEK 293 Cells
Apolipoprotein L1 (APOL1) proteins form potassium-permeable cation pores in the plasma membrane. APOL1 risk variants (G1 and G2) induce greater potassium flux than G0 in HEK293 cells. This assay exploits the permeability of thallium (T1+) through ligand-gated potassium channels. The dye produces a bright fluorescent signal upon binding to T1+ conducted through potassium channels. The intensity of the T1+ signal is proportional to the number of potassium channels in the open state. Therefore, it provides a functional indication of the potassium channel activities. During the initial dye-loading step, the T1+ indicator dye as an acetoxymethyl (AM) ester enters the cells through passive diffusion. Cytoplasm esterases cleave the AM ester and relieve its active thallium-sensitive form. The cells are then stimulated with T1+. The increase of fluorescence in the assay represents the influx of T1+ into the cell specifically through the potassium channel (i.e. through APOL1 pores), providing a functional measurement of potassium channel/pore activity. The Thallium assay is conducted with cells expressing G1 APOL1.
APOL1 Cell Line (HEK T-Rex Stable Inducible Cell Line)
• HEK T-Rex System • Tetracycline (Tet) inducible mammalian expression system. • Stably express the Tet repressor to regulate transcription. • Expression under the full-length CMV promoter. • APOL1 stable inducible cell line Clone used: G1 DC3.25 Tissue Culture Media Cell Culture Medium • DMEM+10% FBS+P/S+5 μg/mL blasticidin+1 μg/mL puromycin. • 500 mL DMEM+55 mL FBS+5 mL P/S+280 μL blasticidin S HCl (10 mg/mL)+56 μL puromycin (10 mg/mL). Cell Assay Medium • DMEM with 2% FBS+penicillin streptomycin. Reagents:
Instruments and Equipment • Nuaire cell culture hood, Cat. No. 540-600 • 37° C./5% CO2 incubator link to robotic arm, Liconic: STX110 • Molecular Devices FLIPR^Tetra High throughput cellular screening system, Cat. No. FT0324, Molecular Devices • ThermoFisher MultiDrop 384, Cat. No. 5840300 • Biotek Microfill, Cat. No. ASF1000A-4145 • BioRad TC10 cell counter, Cat. No. 145-0010 Assay Procedures Cells Scaled Up from Frozen Vials • APOL1 G1 3.25 (HEK293 T-Rex) frozen vials: 5 million cells per vial • Step 1, Day 1: Defrost frozen vial into T-225. • Step 2, Day 5: (when 85% confluent): Split one T-225 at 3×10^6 cells per flask. • Step 3, Day 8: Splits cells to set up for the assay plates as described below. Cell Culture
T-Rex APOL1 HEK cells are split twice per week to keep the confluence state below 85% of the culture flask surface area. Cells can be kept until passage 25.
• DMEM high glucose+10% FBS, +P/S, +5 μg/mL blasticidin, +1 μg/mL puromycin. • 500 mL DMEM, +55 mL FBS, +5 mL P/S, +280 μL blasticidin 10 mg/mL, +56 μL Puromycin 10 mg/mL. Assay Media • Opti-MEM reduced serum medium from Invitrogen. Day 1 Preparation of Cell Assay Plates • Culture medium is removed from the x cm^2 T-flask by aspiration. • The cell monolayer is rinsed with PBS 1× at room temperature. PBS is removed by aspiration. • Cells are trypsinized using Trypsin. • The flasks are incubated at room temperature for 2-3 minutes. • Complete DMEM medium is then added. Cell suspension is then transferred to a 50 mL Falcon polypropylene tube. • Cells are then counted using a BioRad TC10 cell counter and the required amount of cells are centrifuged at 1200 RPM for 5 minutes. Required amount is 1.3×10^6 cells/mL APOL1 T-Rex HEK cells. • The pellet is suspended in the assay medium. • Using the MultiDrop, add 20 μL to each well (corresponds to 26000 cells total per well) of a 384-well black, transparent, flat bottom Poly-D coated plate. • Tetracycline as prepared in the following section is added to the cells before plating to induce APOL1 expression. • Plates are left at room temperature for 20 to 30 minutes before incubation at 37° C. and 5% CO2. […]

Compound	IC50 [nM]
O=C(CC1CCCOC1)N[C@H]1C[C@@H](c2c(-c3ccc(F)cc3)[nH]c3c(F)cc(F)cc32)C1 (stereo partly shown) [Compound 53]	> 1000
CS(=O)(=O)CCC(=O)N[C@H]1C[C@@H](c2c(-c3ccc(F)cc3)[nH]c3c(F)cc(F)cc32)C1 [Compound 54]	> 1000
O=C(CC(=O)N1CCOCC1)N[C@H]1C[C@@H](c2c(-c3ccc(F)cc3)[nH]c3c(F)cc(F)cc32)C1 [Compound 56]	250 to 1000
O=C(CN1CCOCC1)N[C@H]1C[C@@H](c2c(-c3ccc(F)cc3)[nH]c3c(F)cc(F)cc32)C1 [Compound 57]	> 1000
NS(=O)(=O)CCCC(=O)N[C@H]1C[C@@H](c2c(-c3ccc(F)cc3)[nH]c3c(F)cc(F)cc32)C1 [Compound 58]	250 to 1000
CN(C)CCC(=O)N[C@H]1C[C@@H](c2c(-c3ccc(F)cc3)[nH]c3c(F)cc(F)cc32)C1 [Compound 59]	> 1000
CN(C)C(=O)CCC(=O)N[C@H]1C[C@@H](c2c(-c3ccc(F)cc3)[nH]c3c(F)cc(F)cc32)C1 [Compound 60]	> 1000
O=C(CCN1CCCCC1)N[C@H]1C[C@@H](c2c(-c3ccc(F)cc3)[nH]c3c(F)cc(F)cc32)C1 [Compound 61]	> 1000
COCCC(=O)N[C@H]1C[C@@H](c2c(-c3ccc(F)cc3)[nH]c3c(F)cc(F)cc32)C1 [Compound 62]	> 1000
Cc1nccn1CC(=O)N[C@H]1C[C@@H](c2c(-c3ccc(F)cc3)[nH]c3c(F)cc(F)cc32)C1 [Compound 63]	> 1000
CC1(C)CCC(C(=O)N[C@H]2C[C@@H](c3c(-c4ccc(F)cc4)[nH]c4c(F)cc(F)cc43)C2)N1 (stereo partly shown) [Compound 64]	> 1000
O=C1CC(C(=O)N[C@H]2C[C@@H](c3c(-c4ccc(F)cc4)[nH]c4c(F)cc(F)cc43)C2)C(=O)N1 (stereo partly shown) [Compound 65]	> 1000
N#CCC(=O)N[C@H]1C[C@@H](c2c(-c3ccc(F)cc3)[nH]c3c(F)cc(F)cc32)C1 [Compound 67]	> 1000
CC(F)(F)C(=O)N[C@H]1C[C@@H](c2c(-c3ccc(F)cc3)[nH]c3c(F)cc(F)cc32)C1 [Compound 68]	250 to 1000
O=C1NCCC1C(=O)N[C@H]1C[C@@H](c2c(-c3ccc(F)cc3)[nH]c3c(F)cc(F)cc32)C1 (stereo partly shown) [Compound 69]	> 1000
O=C1CC(C(=O)N[C@H]2C[C@@H](c3c(-c4ccc(F)cc4)[nH]c4c(F)cc(F)cc43)C2)CC(=O)N1 [Compound 70]	> 1000
O=C(N[C@H]1C[C@@H](c2c(-c3ccc(F)cc3)[nH]c3c(F)cc(F)cc32)C1)C1COC1 [Compound 71]	250 to 1000
O=C1CC(CC(=O)N[C@H]2C[C@@H](c3c(-c4ccc(F)cc4)[nH]c4c(F)cc(F)cc43)C2)CC(=O)N1 [Compound 72]	> 1000
O=C(N[C@H]1C[C@@H](c2c(-c3ccc(F)cc3)[nH]c3c(F)cc(F)cc32)C1)c1cn[nH]c1 [Compound 73]	250 to 1000
CC(C)(O)C(=O)N[C@H]1C[C@@H](c2c(-c3ccc(F)cc3)[nH]c3c(F)cc(F)cc32)C1 [Compound 74]	250 to 1000
CNCCC(=O)N[C@H]1C[C@@H](c2c(-c3ccc(F)cc3)[nH]c3c(F)cc(F)cc32)C1 [Compound 75]	250 to 1000

Compound	IC50 [nM]
O=C(N[C@H]1C[C@@H](c2c(-c3ccc(F)cc3)[nH]c3c(F)cc(F)cc32)C1)C1(O)CC1 [Compound 76]	250 to 1000
CC(C)(C)OC(=O)NCC(=O)N[C@H]1C[C@@H](c2c(-c3ccc(F)cc3)[nH]c3c(F)cc(F)cc32)C1 [Compound 78]	> 1000
CCCS(=O)(=O)N[C@H]1C[C@@H](c2c(-c3ccc(F)cc3)[nH]c3c(F)cc(F)cc32)C1 [Compound 79, N-((1s,3s)-3-(5,7-difluoro-2-(4-fluorophenyl)-1H-indol-3-yl)cyclobutyl)propane-1-sulfonamide]	> 1000
O=S(=O)(N[C@H]1C[C@@H](c2c(-c3ccc(F)cc3)[nH]c3c(F)cc(F)cc32)C1)c1c[nH]cn1 [Compound 80]	> 1000
Cn1cc(S(=O)(=O)N[C@H]2C[C@@H](c3c(-c4ccc(F)cc4)[nH]c4c(F)cc(F)cc43)C2)cn1 [Compound 81]	> 1000
CCS(=O)(=O)N[C@H]1C[C@@H](c2c(-c3ccc(F)cc3)[nH]c3c(F)cc(F)cc32)C1 [Compound 82]	> 1000
O=S(=O)(N[C@H]1C[C@@H](c2c(-c3ccc(F)cc3)[nH]c3c(F)cc(F)cc32)C1)C1COC1 [Compound 83]	> 1000
O=S(=O)(N[C@H]1C[C@@H](c2c(-c3ccc(F)cc3)[nH]c3c(F)cc(F)cc32)C1)c1cn[nH]c1 [Compound 84]	> 1000
Cn1ccnc1S(=O)(=O)N[C@H]1C[C@@H](c2c(-c3ccc(F)cc3)[nH]c3c(F)cc(F)cc32)C1 [Compound 85]	> 1000
O=S(=O)(N[C@H]1C[C@@H](c2c(-c3ccc(F)cc3)[nH]c3c(F)cc(F)cc32)C1)C1CCOCC1 [Compound 86]	> 1000
N#CCS(=O)(=O)N[C@H]1C[C@@H](c2c(-c3ccc(F)cc3)[nH]c3c(F)cc(F)cc32)C1 [Compound 87]	> 1000
O=C(N[C@H]1C[C@H](c2c(-c3ccc(F)cc3)[nH]c3c(F)cc(F)cc32)C1)OCc1ccccc1 [Compound 88]	> 1000
O=C1CCC(C(=O)N[C@H]2C[C@H](c3c(-c4ccc(F)cc4)[nH]c4c(F)cc(F)cc43)C2)CN1 (stereo partly shown) [Compound 90]	> 1000
CN(C)CC(=O)N[C@H]1C[C@H](c2c(-c3ccc(F)cc3)[nH]c3c(F)cc(F)cc32)C1 [Compound 91]	> 1000
O=C(N[C@H]1C[C@H](c2c(-c3ccc(F)cc3)[nH]c3c(F)cc(F)cc32)C1)C(O)C1CC1 (stereo partly shown) [Compound 92]	250 to 1000
CC(C)C(O)C(=O)N[C@H]1C[C@H](c2c(-c3ccc(F)cc3)[nH]c3c(F)cc(F)cc32)C1 (stereo partly shown) [Compound 93]	250 to 1000
CC1(C(=O)N[C@H]2C[C@H](c3c(-c4ccc(F)cc4)[nH]c4c(F)cc(F)cc43)C2)CC(=O)C1 [Compound 94]	250 to 1000
O=C(CCO)N[C@H]1C[C@H](c2c(-c3ccc(F)cc3)[nH]c3c(F)cc(F)cc32)C1 [Compound 95]	< 250
O=C(N[C@H]1C[C@H](c2c(-c3ccc(F)cc3)[nH]c3c(F)cc(F)cc32)C1)C(O)CO (stereo partly shown) [Compound 96]	250 to 1000
O=C(CC1CC(F)(F)C1)N[C@H]1C[C@H](c2c(-c3ccc(F)cc3)[nH]c3c(F)cc(F)cc32)C1 [Compound 98]	> 1000
CS(=O)(=O)CCCC(=O)N[C@H]1C[C@H](c2c(-c3ccc(F)cc3)[nH]c3c(F)cc(F)cc32)C1 [Compound 99]	> 1000

Same assay, conditions: Thallium Assay (IC50), HEK 293 T-Rex inducible stable clone expressing G1 APOL1

Compound	IC50 [nM]
N[C@H]1C[C@H](c2c(-c3ccc(F)cc3)[nH]c3c(F)cc(F)cc32)C1 [Compound 89, (1r,3r)-3-[5,7-difluoro-2-(4-fluorophenyl)-1H-indol-3-yl]cyclobutanamine]	< 250
